We go through 19 compounds from patent US20230373985A1 (Origenis Gmbh, priority 2020, published 2023).

Assay [1] concerns the target T1, wt human LRRK2, catalytic site (Homo sapiens, UniProt Q5S007).
T1 construct: 5 nM wt human LRRK2, catalytic site; purchased ThermoFisher
Nature of the assay: TR-FRET LanthaScreen Eu Kinase Binding Assay, LRRK2 wt. The conditions noted are these: one range stated for wt and G2019, read-out: IC50, Activity Toward LRRK2(Wt). The method, boiled down: (§1)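 Each kinase was incubated with compound, 2 nM europium-labelled antibody and Tracer 236 for one hour at room temperature before plate reading. LRRK2 wt and G2019S used 5 nM protein and 10 nM tracer; NUAK1 used 8 nM protein and 5 nM tracer.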
For orientation: Time-resolved FRET reads energy transfer from a long-lived donor to a nearby acceptor.

In assay [2] the target is T2, wt human JAK2, catalytic site (Homo sapiens, UniProt O60674).
T2 construct: wt human JAK2, catalytic site; purchased SignalChem
Nature of the assay: HTRF KinEASE assay, JAK2. The conditions noted are these: assay format not given (Z'-LYTE or HTRF KinEASE); read-out: IC50, Activity Toward JAK2. It is filed as biochemical. On the procedure: Basic protocol for HTRF KinEASE assay (Cisbio/FRA) inhibitor studies involved two steps: • Enzymatic step: Addition of 4 μL of test compound in corresponding DMSO dilutions, 4 μL of kinase/substrate mixture, 2 μL of ATP into 384 well small volume plates. Incubation for at least 30 minutes at room temperature. • Detection step: Addition of 5 μL antibody and 5 μL streptavidin-XL665, read plate after 60 minutes. Data analysis of emission ratios according KinEASE assay protocol.
(§2) Kinase and assay components were adjusted to final concentrations according to kit protocol. For TYK2: 2 nM wt human TYK2, catalytic site (SignalChem/CAN), 1 μM HTRF KinEASE-TK Substrate-biotin, 1 μM ATP in 1× Kinase Buffer. For JAK1: 4 nM wt human JAK1, catalytic site (ThermoFisher/USA), 1 μM HTRF KinEASE-TK Substrate-biotin, 2.5 μM ATP in 1× Kinase Buffer. For JAK2: 1 nM wt human JAK2, catalytic site (SignalChem/CAN), 1 μM HTRF KinEASE-TK Substrate-biotin, 100 μM ATP in 1× Kinase Buffer.
as §2

In assay [3] the target is T3, wt human JAK1, catalytic site (Homo sapiens, UniProt P23458).
T3 construct: wt human JAK1, catalytic site; purchased ThermoFisher
Nature of the assay: HTRF KinEASE assay, JAK1. It is filed as biochemical. Conditions: 2.5 μM ATP; read-out: IC50, Activity Toward JAK1. The method, boiled down: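 Compounds in DMSO dilution were mixed with kinase, biotin-TK substrate and ATP and reacted for ≥30 min at room temperature. Detection reagents (antibody, streptavidin-XL665) were read 60 min later as HTRF, with emission ratios analysed per KinEASE protocol.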

Assay [4] has as its target T4, wt human TYK2, catalytic site (Homo sapiens, UniProt P29597).
T4 construct: wt human TYK2, catalytic site; purchased SignalChem
T4 sequence (P29597 897-1176 limits assumed): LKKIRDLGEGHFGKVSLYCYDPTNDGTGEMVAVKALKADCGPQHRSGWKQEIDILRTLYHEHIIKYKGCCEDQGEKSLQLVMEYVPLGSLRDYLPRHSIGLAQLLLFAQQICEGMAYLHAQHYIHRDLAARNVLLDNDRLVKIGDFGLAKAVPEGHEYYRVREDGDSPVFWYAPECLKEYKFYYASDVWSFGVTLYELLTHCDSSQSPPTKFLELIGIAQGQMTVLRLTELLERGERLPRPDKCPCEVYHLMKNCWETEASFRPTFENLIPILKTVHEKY
Put plainly: HTRF KinEASE assay, TYK2. The assay is classed as biochemical. Conditions: 1 μM ATP; read-out: IC50, Activity Toward TYK2. A digest of the protocol:
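Kinase reaction run at room temperature for at least 30 min: 2 nM TYK2 with 1 μM ATP, or 1 nM JAK2 with 100 μM ATP, each with 1 μM biotin-TK substrate. Phosphorylation detected by HTRF (60 min antibody/XL665) and evaluated from emission ratios.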

Assay [5] deals with T5, G2019S human LRRK2, catalytic site (Homo sapiens, UniProt Q5S007, G2019S).
T5 construct: G2019S human LRRK2, catalytic site; purchased ThermoFisher
Put plainly: TR-FRET LanthaScreen Eu Kinase Binding Assay, LRRK2 G2019S. Conditions: LRRK2(G2019); one range stated for wt and G2019; read-out: IC50, Activity Toward LRRK2(G2019). A digest of the protocol: as §1

T2 sequence (O60674 849-1124 limits assumed): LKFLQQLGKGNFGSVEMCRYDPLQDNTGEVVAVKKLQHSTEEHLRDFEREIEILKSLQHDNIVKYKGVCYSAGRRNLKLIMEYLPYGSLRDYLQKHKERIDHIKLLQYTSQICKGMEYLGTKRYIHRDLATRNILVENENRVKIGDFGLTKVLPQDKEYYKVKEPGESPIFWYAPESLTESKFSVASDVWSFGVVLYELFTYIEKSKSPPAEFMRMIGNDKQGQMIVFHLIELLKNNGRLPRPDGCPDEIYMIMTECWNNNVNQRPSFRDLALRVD
T3 sequence (P23458 875-1153 limits assumed): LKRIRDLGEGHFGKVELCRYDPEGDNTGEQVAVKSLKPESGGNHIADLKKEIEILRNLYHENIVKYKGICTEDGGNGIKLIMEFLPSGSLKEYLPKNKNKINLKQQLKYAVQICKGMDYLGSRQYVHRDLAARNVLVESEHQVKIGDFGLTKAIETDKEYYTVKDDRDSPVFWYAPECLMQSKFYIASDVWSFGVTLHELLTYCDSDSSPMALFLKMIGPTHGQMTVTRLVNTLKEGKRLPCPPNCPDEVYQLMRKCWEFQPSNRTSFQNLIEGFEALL
T5 sequence (Q5S007 970-2527 G2019S limits assumed): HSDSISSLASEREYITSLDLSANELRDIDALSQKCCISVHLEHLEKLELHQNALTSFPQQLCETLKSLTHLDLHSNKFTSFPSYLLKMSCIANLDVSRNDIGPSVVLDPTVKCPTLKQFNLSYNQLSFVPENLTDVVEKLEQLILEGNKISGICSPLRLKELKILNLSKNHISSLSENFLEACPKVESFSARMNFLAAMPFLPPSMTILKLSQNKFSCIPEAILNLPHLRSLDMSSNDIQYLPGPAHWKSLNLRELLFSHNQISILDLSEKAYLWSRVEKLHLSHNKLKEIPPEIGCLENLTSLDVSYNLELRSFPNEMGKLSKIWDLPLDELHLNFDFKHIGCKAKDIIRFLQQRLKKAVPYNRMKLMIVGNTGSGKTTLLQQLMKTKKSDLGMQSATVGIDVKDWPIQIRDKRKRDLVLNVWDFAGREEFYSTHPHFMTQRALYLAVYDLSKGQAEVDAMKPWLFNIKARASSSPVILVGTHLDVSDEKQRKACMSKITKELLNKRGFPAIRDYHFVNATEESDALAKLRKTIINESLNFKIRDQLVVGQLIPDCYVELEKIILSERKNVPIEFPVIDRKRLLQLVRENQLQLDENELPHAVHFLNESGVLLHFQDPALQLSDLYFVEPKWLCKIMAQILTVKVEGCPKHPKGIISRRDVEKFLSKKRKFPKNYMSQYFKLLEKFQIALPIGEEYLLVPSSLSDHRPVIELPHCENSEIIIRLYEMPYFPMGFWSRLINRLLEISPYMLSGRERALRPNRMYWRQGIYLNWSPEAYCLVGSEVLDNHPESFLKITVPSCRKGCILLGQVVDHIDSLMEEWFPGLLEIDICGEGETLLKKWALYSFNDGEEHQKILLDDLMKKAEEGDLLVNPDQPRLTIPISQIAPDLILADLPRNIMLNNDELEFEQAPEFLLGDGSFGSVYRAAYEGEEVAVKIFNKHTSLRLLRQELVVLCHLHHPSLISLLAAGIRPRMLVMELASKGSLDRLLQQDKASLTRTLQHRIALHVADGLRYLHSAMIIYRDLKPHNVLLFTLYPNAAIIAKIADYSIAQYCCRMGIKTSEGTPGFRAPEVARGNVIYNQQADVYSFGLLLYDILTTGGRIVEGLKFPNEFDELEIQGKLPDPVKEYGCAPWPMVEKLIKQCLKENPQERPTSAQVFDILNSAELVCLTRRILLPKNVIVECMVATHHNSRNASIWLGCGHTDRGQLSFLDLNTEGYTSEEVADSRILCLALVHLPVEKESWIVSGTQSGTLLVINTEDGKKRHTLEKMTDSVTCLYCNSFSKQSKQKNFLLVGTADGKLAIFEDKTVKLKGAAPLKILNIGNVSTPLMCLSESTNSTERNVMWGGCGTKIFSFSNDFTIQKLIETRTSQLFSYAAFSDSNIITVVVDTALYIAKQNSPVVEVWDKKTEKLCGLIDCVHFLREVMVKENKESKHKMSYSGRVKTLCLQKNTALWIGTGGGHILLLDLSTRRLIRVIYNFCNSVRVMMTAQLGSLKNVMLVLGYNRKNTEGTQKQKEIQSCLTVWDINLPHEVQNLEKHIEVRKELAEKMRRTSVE
T1 sequence (Q5S007 970-2527 limits assumed): as the sequence (Q5S007 970-2527 G2019S limits assumed) above, with S1050G counted along it

In general, IC50 refers to the point on the concentration scale where inhibition reaches its midpoint. Regarding `NC(=O)c1nn(-c2c(Cl)cccc2Cl)cc1Nc1ccc(C(=O)N2CCOCC2)cc1` [compound 17, 1-(2,6-dichlorophenyl)-4-((4-(morpholine-4-carbonyl)phenyl)amino)-1H-pyrazole-3-carboxamide], the IC50 in assay [1] is 100 to 1000 nM; in assay [2], 100 to 1000 nM; in assay [3] it was 10 to 100 nM; in assay [4], less than 10 nM; in assay [5] it was 100 to 1000 nM.

On to `CCc1cnncc1-c1ccc(Nc2cn(-c3c(Cl)cccc3Cl)nc2C(N)=O)cc1` [compound 322, 1-(2,6-dichlorophenyl)-4-((4-(5-ethylpyridazin-4-yl)phenyl)amino)-1H-pyrazole-3-carboxamide], for which the IC50 in assay [1] fell in the range of 100 to 1000 nM; in assay [2], 100 to 1000 nM; in assay [3] it was 10 to 100 nM; in assay [4], 10 to 100 nM; in assay [5], 100 to 1000 nM.

Take `Cn1cnnc1-c1ccc(Nc2nn(-c3c(Cl)cccc3Cl)nc2C(N)=O)cc1` [compound 117, 2-(2,6-dichlorophenyl)-5-((4-(4-methyl-4H-1,2,4-triazol-3-yl)phenyl)amino)-2H-1,2,3-triazole-4-carboxamide]: the IC50 in assay [2] fell in the range of 100 to 1000 nM; in assay [3] it was 10 to 100 nM; in assay [4] it was 10 to 100 nM.

Regarding `NC(=O)c1nn(-c2c(Cl)cccc2Cl)cc1Nc1ccc(-c2nncn2CC(F)(F)F)cc1` [compound 210, 1-(2,6-dichlorophenyl)-4-((4-(4-(2,2,2-trifluoroethyl)-4H-1,2,4-triazol-3-yl)phenyl)amino)-1H-pyrazole-3-carboxamide], the results for the IC50 in assay [2], in assay [3] and in assay [4] were 100 to 1000 nM, 100 to 1000 nM and 10 to 100 nM, respectively.

With `NC(=O)c1nn(-c2c(Cl)cccc2Cl)nc1Nc1ccc(OC2CCNCC2)cc1` [Compound No. 120, 2-(2,6-dichlorophenyl)-5-((4-(piperidin-4-yloxy)phenyl)amino)-2H-1,2,3-triazole-4-carboxamide], the IC50 in assay [2] is 100 to 1000 nM; in assay [3], 10 to 100 nM; in assay [4], 10 to 100 nM.

Take `N#Cc1cccc(Cl)c1-n1nc(Nc2ccc(C(=O)N3CC[C@@H](F)C3)cc2)c(C(N)=O)n1` [compound 162, (R)-2-(2-chloro-6-cyanophenyl)-5-((4-(3-fluoropyrrolidine-1-carbonyl)phenyl)amino)-2H-1,2,3-triazole-4-carboxamide]: the values for the half-maximal inhibitory concentration (IC50) in assay [2], in assay [3] and in assay [4] were 100 to 1000 nM, 10 to 100 nM and less than 10 nM, respectively.

In the case of `NC(=O)c1nn(-c2c(Cl)cccc2Cl)nc1Nc1ccc(C(=O)N2CC(O)C2)cc1` [compound 124, 2-(2,6-dichlorophenyl)-5-((4-(3-hydroxyazetidine-1-carbonyl)phenyl)amino)-2H-1,2,3-triazole-4-carboxamide], the IC50 is 100 to 1000 nM in assay [2], 10 to 100 nM in assay [3] and less than 10 nM in assay [4].

Consider `NC(=O)c1nn(-c2c(Cl)cccc2Cl)cc1Nc1ccc(C(=O)N2CCS(=O)(=O)CC2)cc1` [compound 451, 1-(2,6-dichlorophenyl)-4-((4-(1,1-dioxidothiomorpholine-4-carbonyl)phenyl)amino)-1H-pyrazole-3-carboxamide], for which the IC50 in assay [2] is 100 to 1000 nM; in assay [3], less than 10 nM; in assay [4] it was less than 10 nM.

For the compound `N#Cc1cccc(Cl)c1-n1cc(Nc2ccc(C(=O)N3CCS(=O)(=O)CC3)cc2)c(C(N)=O)n1` [compound 457, 1-(2-chloro-6-cyanophenyl)-4-((4-(1,1-dioxidothiomorpholine-4-carbonyl)phenyl)amino)-1H-pyrazole-3-carboxamide], the IC50 in assay [2] was 100 to 1000 nM; in assay [3] it was 10 to 100 nM; in assay [4] it was less than 10 nM.

Take `NC(=O)c1nn(-c2c(F)ccc(F)c2Cl)nc1Nc1ccc(C(=O)N2CC[C@@H](F)C2)cc1` [compound 147, (R)-2-(2-chloro-3,6-difluorophenyl)-5-((4-(3-fluoropyrrolidine-1-carbonyl)phenyl)amino)-2H-1,2,3-triazole-4-carboxamide]: the values for the IC50 in assay [2], in assay [3] and in assay [4] were 100 to 1000 nM, less than 10 nM and 10 to 100 nM, respectively.

With `NC(=O)c1nn(-c2c(Cl)ccc(F)c2F)nc1Nc1ccc(C(=O)N2CC[C@@H](F)C2)cc1` [compound 167, (R)-2-(6-chloro-2,3-difluorophenyl)-5-((4-(3-fluoropyrrolidine-1-carbonyl)phenyl)amino)-2H-1,2,3-triazole-4-carboxamide], the IC50 in assay [2] was in the range of 100 to 1000 nM; in assay [3], 10 to 100 nM; in assay [4] it was 10 to 100 nM.

As to `COCCCNC(=O)c1ccc(Nc2nn(-c3c(Cl)cccc3Cl)nc2C(N)=O)cc1` [compound 119, 2-(2,6-dichlorophenyl)-5-((4-((3-methoxypropyl)carbamoyl)phenyl)amino)-2H-1,2,3-triazole-4-carboxamide], the figures for the IC50 in assay [2], in assay [3] and in assay [4] were 100 to 1000 nM, 10 to 100 nM and 10 to 100 nM, respectively.

`N#CC1CN(C(=O)c2ccc(Nc3nn(-c4c(Cl)cccc4Cl)nc3C(N)=O)cc2)C1` [compound 107, 5-[4-(3-Cyano-azetidine-1-carbonyl)-phenylamino]-2-(2,6-dichloro-phenyl)-2H-[1,2,3]triazole-4-carboxylic acid amide]: the IC50 is 100 to 1000 nM in assay [2], 100 to 1000 nM in assay [3] and less than 10 nM in assay [4].

For `NC(=O)c1nn(-c2c(Cl)ccc(F)c2Cl)nc1Nc1ccc(C(=O)N2CC[C@@H](F)C2)cc1` [compound 145, (R)-2-(2,6-dichloro-3-fluorophenyl)-5-((4-(3-fluoropyrrolidine-1-carbonyl)phenyl)amino)-2H-1,2,3-triazole-4-carboxamide], the IC50 in assay [2] is 100 to 1000 nM; in assay [3], less than 10 nM; in assay [4], 10 to 100 nM.

`NC(=O)c1nn(-c2c(Cl)cccc2Cl)nc1Nc1ccc(C(=O)N2CCS(=O)(=O)CC2)cc1` [compound 163, 2-(2,6-dichlorophenyl)-5-((4-(1,1-dioxidothiomorpholine-4-carbonyl)phenyl)amino)-2H-1,2,3-triazole-4-carboxamide]: the IC50 in assay [2] is 100 to 1000 nM; in assay [3], less than 10 nM; in assay [4], less than 10 nM.

Consider `Cn1ncnc1-c1ccc(Nc2cn(-c3c(Cl)cccc3Cl)nc2C(N)=O)cc1` [compound 96, 1-(2,6-dichlorophenyl)-4-((4-(1-methyl-1H-1,2,4-triazol-5-yl)phenyl)amino)-1H-pyrazole-3-carboxamide], for which the IC50 in assay [2] fell in the range of 100 to 1000 nM; in assay [3] it was 10 to 100 nM; in assay [4], 10 to 100 nM.

Take `CC(C)n1cnnc1-c1ccc(Nc2nn(-c3c(Cl)cccc3Cl)nc2C(N)=O)cc1` [compound 116, 2-(2,6-dichlorophenyl)-5-((4-(4-isopropyl-4H-1,2,4-triazol-3-yl)phenyl)amino)-2H-1,2,3-triazole-4-carboxamide]: the IC50 in assay [1] was 100 to 1000 nM; in assay [2], 100 to 1000 nM; in assay [4], less than 10 nM; in assay [5] it was 100 to 1000 nM.

With `NC(=O)c1nn(-c2c(Cl)ccc(F)c2Cl)nc1Nc1ccc(C(=O)N2CCOCC2)cc1` [compound 138, 2-(2,6-dichloro-3-fluorophenyl)-5-((4-(morpholine-4-carbonyl)phenyl)amino)-2H-1,2,3-triazole-4-carboxamide], the values for the concentration for half-maximal inhibition (IC50) in assay [2], in assay [3] and in assay [4] were 100 to 1000 nM, less than 10 nM and 10 to 100 nM, respectively.

Consider `CC(C)n1ncnc1-c1ccc(Nc2cn(-c3c(Cl)cccc3Cl)nc2C(N)=O)cc1` [compound 90, 1-(2,6-dichlorophenyl)-4-((4-(1-isopropyl-1H-1,2,4-triazol-5-yl)phenyl)amino)-1H-pyrazole-3-carboxamide], for which the IC50 in assay [2] was 100 to 1000 nM; in assay [3] it was 100 to 1000 nM; in assay [4] it was 10 to 100 nM.
